Reference: the supplement of paper PMC10307832

Key:
Assay in all cases: relative viability (nuclei count vs DMSO), 5 days (fraction); higher = more cells survive
Pazopanib + Vorinostat = compound: Cc1ccc(Nc2nccc(N(C)c3ccc4c(C)n(C)nc4c3)n2)cc1S(N)(=O)=O [Pazopanib] + O=C(CCCCCCC(=O)Nc1ccccc1)NO [Vorinostat] (partner 1 µM)
Method in brief: (§1)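 Relative viability equals treated-well nuclei counts divided by vehicle-well nuclei counts. Counts came from 4× images of lung cancer cell lines grown in 1536-well plates for 5 days after pin-tool dosing on the day after seeding. Dosing used one drug alone or a fixed anchor-drug dose plus five library-drug doses (not always all listed) in √10 steps, and values are medians of duplicate plates.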

Pazopanib + OSI-027 = compound: Cc1ccc(Nc2nccc(N(C)c3ccc4c(C)n(C)nc4c3)n2)cc1S(N)(=O)=O [Pazopanib] + COc1cccc2cc(-c3nc([C@H]4CC[C@H](C(=O)O)CC4)n4ncnc(N)c34)[nH]c12 [OSI-027] (partner 0.5 µM)
Method in brief: as §1

Ponatinib + Dasatinib = compound: Cc1ccc(C(=O)Nc2ccc(CN3CCN(C)CC3)c(C(F)(F)F)c2)cc1C#Cc1cnc2cccnn12 [Ponatinib] + Cc1nc(Nc2ncc(C(=O)Nc3c(C)cccc3Cl)s2)cc(N2CCN(CCO)CC2)n1 [Dasatinib] (partner 0.075 µM)
Method in brief: as §1

Pazopanib + Alpelisib = compound: Cc1ccc(Nc2nccc(N(C)c3ccc4c(C)n(C)nc4c3)n2)cc1S(N)(=O)=O [Pazopanib] + Cc1nc(NC(=O)N2CCC[C@H]2C(N)=O)sc1-c1ccnc(C(C)(C)C(F)(F)F)c1 [Alpelisib] (partner 2 µM)
Method in brief: as §1

| Cell Line | relative viability (Pazopanib + Vorinostat; first compound 0.01 µM) | relative viability (Pazopanib + Vorinostat; first compound 0.03162 µM) | relative viability (Pazopanib + Vorinostat; first compound 0.1 µM) | relative viability (Pazopanib + Vorinostat; first compound 0.3162 µM) | relative viability (Pazopanib + Vorinostat; first compound 1 µM) | relative viability (Pazopanib + OSI-027; first compound 0.01 µM) | relative viability (Pazopanib + OSI-027; first compound 0.03162 µM) | relative viability (Pazopanib + OSI-027; first compound 0.1 µM) | relative viability (Pazopanib + OSI-027; first compound 0.3162 µM) | relative viability (Pazopanib + OSI-027; first compound 1 µM) | relative viability (Ponatinib + Dasatinib; first compound 0.002 µM) | relative viability (Ponatinib + Dasatinib; first compound 0.006325 µM) | relative viability (Ponatinib + Dasatinib; first compound 0.06325 µM) | relative viability (Ponatinib + Dasatinib; first compound 0.2 µM) | relative viability (Pazopanib + Alpelisib; first compound 0.01 µM) | relative viability (Pazopanib + Alpelisib; first compound 0.03162 µM) | relative viability (Pazopanib + Alpelisib; first compound 0.1 µM) | relative viability (Pazopanib + Alpelisib; first compound 0.3162 µM) | relative viability (Pazopanib + Alpelisib; first compound 1 µM) |
| --- | --- | --- | --- | --- | --- | --- | --- | --- | --- | --- | --- | --- | --- | --- | --- | --- | --- | --- | --- |
| NCI-H1650 | 0.654 | 0.615 | 0.605 | 0.59 | 0.704 | 0.727 | 0.759 | 0.744 | 0.803 | 0.699 | 0.298 | 0.346 | 0.327 | 0.349 | – | – | – | – | – |
| BEN | 0.593 | 0.606 | 0.533 | 0.591 | 0.563 | – | 0.348 | 0.314 | 0.287 | 0.314 | 0.255 | 0.279 | 0.257 | 0.311 | 0.845 | 1.04 | 1.1 | 1.02 | 0.988 |
| EMC-BAC-2 | – | 0.512 | 0.232 | 0.472 | 0.432 | – | 0.424 | 0.394 | 0.404 | 0.399 | 0.335 | 0.319 | 0.323 | 0.305 | 0.702 | 0.764 | 0.808 | 0.767 | 0.747 |
| LU99A | – | 0.493 | 0.459 | 0.545 | 0.554 | 0.29 | 0.315 | 0.334 | 0.349 | 0.301 | 0.498 | 0.664 | 0.498 | 0.462 | 0.428 | 0.505 | 0.416 | 0.517 | 0.544 |
| ABC-1 | 1.04 | 1.38 | 0.731 | 1.2 | 1.27 | 0.367 | 0.572 | – | 0.668 | 0.579 | 0.465 | 0.614 | 0.539 | 0.629 | 0.859 | 1.1 | 0.984 | 1.1 | 1.03 |
| NCI-H358 | 0.752 | 0.656 | 0.782 | 0.728 | 0.694 | 0.843 | 0.999 | 0.828 | – | 1.03 | 0.185 | 0.184 | 0.236 | 0.187 | 1.06 | 0.892 | 0.91 | 0.864 | 0.922 |
| NCI-H1299 | – | – | – | – | – | – | – | – | – | – | – | – | – | – | 1.07 | 0.976 | 1.12 | 1 | 1.06 |
| EBC-1 | – | – | – | – | – | – | – | – | – | – | – | – | – | – | 0.914 | 0.907 | 0.913 | 0.914 | 1 |
| NCI-H2405 | 0.925 | 1.16 | 0.93 | 1.11 | 1.16 | 0.628 | 0.67 | 0.72 | 0.656 | 0.736 | 0.17 | 0.206 | 0.187 | 0.202 | 0.743 | 0.787 | 0.861 | 1.09 | 0.838 |
| NCI-H1993 | – | 0.851 | 0.832 | 0.741 | 0.763 | – | 0.603 | 0.599 | 0.479 | 0.461 | 0.684 | 0.661 | 0.832 | 0.603 | 0.67 | 0.7 | 0.759 | 0.703 | 0.733 |
| NCI-H441 | 0.736 | 1.06 | 0.865 | 0.838 | 0.645 | 0.6 | 0.597 | 0.649 | 0.619 | 0.454 | 0.72 | 0.53 | 0.539 | 0.406 | 0.71 | 0.73 | 0.987 | 0.655 | 0.728 |
| PC-14 | 0.81 | 0.87 | 0.669 | 0.786 | 0.751 | 0.871 | 0.937 | 1.06 | 0.849 | 1.01 | 0.244 | 0.24 | 0.292 | 0.248 | 0.883 | 0.996 | 0.959 | 0.934 | 0.935 |
| HARA | 0.475 | 0.424 | 0.605 | 0.438 | 0.605 | 0.581 | 0.583 | 0.504 | 0.642 | 0.6 | 0.281 | 0.215 | 0.233 | 0.173 | 0.82 | 0.779 | 0.846 | 0.818 | 0.982 |
| NCI-H1648 | – | – | 0.337 | 0.535 | 0.376 | 0.24 | 0.219 | 0.242 | 0.271 | 0.235 | – | – | – | – | – | – | – | – | – |
| NCI-H1792 | – | – | – | – | – | – | 0.714 | 0.702 | 0.746 | 0.673 | 0.726 | 0.795 | 0.886 | 0.542 | – | 0.703 | 0.748 | 0.69 | 0.69 |
| ChaGo-K-1 | 0.743 | 0.772 | 0.756 | 0.757 | 0.727 | 0.528 | 0.504 | 0.541 | 0.498 | 0.581 | 0.487 | 0.567 | 0.488 | 0.509 | – | – | – | – | – |
| HCC-44 | 1.11 | 1.01 | 1.08 | 1.04 | 1.15 | 0.405 | 0.572 | 0.584 | 0.68 | 0.677 | – | – | – | – | 0.664 | 0.806 | 0.766 | 0.74 | 0.793 |
| A549 | – | – | – | – | – | – | – | – | – | – | – | – | – | – | 0.798 | 0.685 | 0.828 | 0.746 | 1.01 |
| NCI-H1563 | – | – | – | – | – | 0.716 | 0.802 | 0.788 | 0.802 | 0.734 | 0.473 | 0.506 | 0.447 | 0.434 | 0.902 | 0.868 | 0.978 | 0.935 | 0.929 |
| NCI-H522 | 0.603 | 0.874 | 0.851 | 0.922 | 1.02 | 0.705 | 0.662 | 0.705 | 0.636 | 0.775 | 0.782 | 0.846 | 0.703 | 0.816 | – | – | – | – | – |
| IA-LM | – | 0.977 | 1.1 | 0.964 | 0.945 | – | – | – | – | – | – | – | – | – | 0.665 | 0.856 | 0.876 | 0.669 | 0.509 |
| NCI-H1703 | – | – | – | – | – | – | – | – | – | – | – | – | – | – | 0.338 | 0.293 | 0.216 | 0.279 | 0.278 |
| SW 900 | 0.465 | 0.33 | – | 0.545 | 0.53 | 0.478 | 0.535 | 0.515 | 0.588 | 0.565 | 0.682 | 0.494 | 0.453 | 0.48 | – | – | – | – | – |
